# Assay results published in patent US11701372B2, “Inhalation formulations of 1'-cyano substituted carba-nucleoside analogs” (priority 2020, dated 2023).
# Like-named read-outs stand apart in the source and are kept apart here.
# Columns and labels:
# [1] = 24 hours, endogenous ATP
# [2] = assay type: physicochemical; details: for % assay/degs: T = 0
# Method: For each condition, samples were staged at ambient and refrigerated conditions. Samples were analyzed for % assay/degs, appearance, reconstitution time, pH, and compared to T=0. The structures of the key impurities/metabolites are shown below.
# [3] = In use testing of reconstituted solutions in IV bags and IV tubings; assay type: physicochemical
# From the text: The IV bags and IV tubings were sampled over time and tested for % assay/degradation.
smiles,measurement,setting,value
Nc1ncnc2c1ncn2[C@@H]1O[C@H](COP(=O)(O)OP(=O)(O)OP(=O)(O)O)[C@@H](O)[C@H]1O [ATP],ATP Peak Area (LC-MS/MS),"[1]; Nasal Mucosa, 0.168 mg/kg inhaled deposited dose of Formula Ia",6.47 ± 0.40 ×10^8
same,ATP Peak Area (LC-MS/MS),"[1]; Nasal Mucosa, 0.536 mg/kg inhaled deposited dose of Formula Ia",5.65 ± 0.79 ×10^8
same,ATP Peak Area (LC-MS/MS),"[1]; Nasopharyngeal Mucosa, 0.168 mg/kg inhaled deposited dose of Formula Ia",4.29 ± 0.84 ×10^8
same,ATP Peak Area (LC-MS/MS),"[1]; Nasopharyngeal Mucosa, 0.536 mg/kg inhaled deposited dose of Formula Ia",3.69 ± 0.40 ×10^8
N#C[C@@]1(c2ccc3c(N)ncnn23)O[C@H](COP(=O)(O)Oc2ccccc2)[C@@H](O)[C@H]1O [Compound F],"% assay/degs, difference from T = 0","[2]; pH 1.8, 2-8° C., 2 h",0.02%
same,"% assay/degs, difference from T = 0","[2]; pH 1.8, 2-8° C., 3 h",0.03%
same,"% assay/degs, difference from T = 0","[2]; pH 1.8, 2-8° C., 8 h",0.08%
same,"% assay/degs, difference from T = 0","[2]; pH 1.8, 2-8° C., 24 h",0.20%
same,"% assay/degs, difference from T = 0","[2]; pH 1.8, 2-8° C., 48 h",0.39%
same,"% assay/degs, difference from T = 0","[2]; pH 1.8, Ambient, 1 h",0.04%
same,"% assay/degs, difference from T = 0","[2]; pH 1.8, Ambient, 2 h",0.08%
same,"% assay/degs, difference from T = 0","[2]; pH 1.8, Ambient, 3 h",0.13%
same,"% assay/degs, difference from T = 0","[2]; pH 1.8, Ambient, 8 h",0.34%
same,"% assay/degs, difference from T = 0","[2]; pH 1.8, Ambient, 24 h",1.05%
same,"% assay/degs, difference from T = 0","[2]; pH 1.8, Ambient, 48 h",2.09%
same,% assay/degs,[2]; pH 1.8,0.08%
same,"% assay/degs, difference from T = 0","[2]; pH 2.0, 2-8° C., 2 h",0.02%
same,"% assay/degs, difference from T = 0","[2]; pH 2.0, 2-8° C., 3 h",0.02%
same,"% assay/degs, difference from T = 0","[2]; pH 2.0, 2-8° C., 8 h",0.06%
same,"% assay/degs, difference from T = 0","[2]; pH 2.0, 2-8° C., 24 h",0.13%
same,"% assay/degs, difference from T = 0","[2]; pH 2.0, 2-8° C., 48 h",0.25%
same,"% assay/degs, difference from T = 0","[2]; pH 2.0, Ambient, 1 h",0.03%
same,"% assay/degs, difference from T = 0","[2]; pH 2.0, Ambient, 2 h",0.05%
same,"% assay/degs, difference from T = 0","[2]; pH 2.0, Ambient, 3 h",0.08%
same,"% assay/degs, difference from T = 0","[2]; pH 2.0, Ambient, 8 h",0.22%
same,"% assay/degs, difference from T = 0","[2]; pH 2.0, Ambient, 24 h",0.68%
same,"% assay/degs, difference from T = 0","[2]; pH 2.0, Ambient, 48 h",1.37%
same,% assay/degs,[2]; pH 2.0,0.06%
same,"% assay/degs, difference from T = 0","[2]; pH 3.5, 2-8° C., 2 h",0.00%
same,"% assay/degs, difference from T = 0","[2]; pH 3.5, 2-8° C., 8 h",0.00%
same,"% assay/degs, difference from T = 0","[2]; pH 3.5, 2-8° C., 24 h",0.00%
same,"% assay/degs, difference from T = 0","[2]; pH 3.5, 2-8° C., 48 h",0.01%
same,"% assay/degs, difference from T = 0","[2]; pH 3.5, 2-8° C., 72 h",0.01%
same,"% assay/degs, difference from T = 0","[2]; pH 3.5, 2-8° C., 96 h",0.02%
same,"% assay/degs, difference from T = 0","[2]; pH 3.5, 2-8° C., 168 h",0.03%
same,"% assay/degs, difference from T = 0","[2]; pH 3.5, Ambient, 2 h",0.00%
same,"% assay/degs, difference from T = 0","[2]; pH 3.5, Ambient, 8 h",0.01%
same,"% assay/degs, difference from T = 0","[2]; pH 3.5, Ambient, 24 h",0.03%
same,"% assay/degs, difference from T = 0","[2]; pH 3.5, Ambient, 48 h",0.05%
same,"% assay/degs, difference from T = 0","[2]; pH 3.5, Ambient, 72 h",0.08%
same,"% assay/degs, difference from T = 0","[2]; pH 3.5, Ambient, 96 h",0.11%
same,"% assay/degs, difference from T = 0","[2]; pH 3.5, Ambient, 168 h",0.19%
same,% assay/degs,[2]; pH 3.5,0.02%
same,"% assay/degs, difference from T = 0","[2]; pH 3.8, 2-8° C., 7.2 h",0.00%
same,"% assay/degs, difference from T = 0","[2]; pH 3.8, 2-8° C., 24 h",0.00%
same,"% assay/degs, difference from T = 0","[2]; pH 3.8, 2-8° C., 96 h",0.01%
same,"% assay/degs, difference from T = 0","[2]; pH 3.8, 2-8° C., 168 h",0.01%
same,"% assay/degs, difference from T = 0","[2]; pH 3.8, Ambient, 7.2 h",0.01%
same,"% assay/degs, difference from T = 0","[2]; pH 3.8, Ambient, 24 h",0.02%
same,"% assay/degs, difference from T = 0","[2]; pH 3.8, Ambient, 96 h",0.06%
same,"% assay/degs, difference from T = 0","[2]; pH 3.8, Ambient, 168 h",0.10%
same,% assay/degs,[2]; pH 3.8,0.02%
same,"% assay/degs, difference from T = 0","[2]; pH 4.0, 2-8° C., 7.2 h",0.00%
same,"% assay/degs, difference from T = 0","[2]; pH 4.0, 2-8° C., 24 h",0.00%
same,"% assay/degs, difference from T = 0","[2]; pH 4.0, 2-8° C., 96 h",0.01%
same,"% assay/degs, difference from T = 0","[2]; pH 4.0, 2-8° C., 168 h",0.01%
same,"% assay/degs, difference from T = 0","[2]; pH 4.0, Ambient, 7.2 h",0.00%
same,"% assay/degs, difference from T = 0","[2]; pH 4.0, Ambient, 24 h",0.01%
same,"% assay/degs, difference from T = 0","[2]; pH 4.0, Ambient, 96 h",0.04%
same,"% assay/degs, difference from T = 0","[2]; pH 4.0, Ambient, 168 h",0.07%
same,% assay/degs,[2]; pH 4.0,0.02%
same,% assay/degradation,"[3]; 30 mg (IV Bag), 2-8° C. 24 h",0.07 % w/w
same,% assay/degradation,"[3]; 30 mg (IV Bag), 2-8° C. 48 h",0.06 % w/w
same,% assay/degradation,"[3]; 30 mg (IV Bag), Ambient 4 h",0.06 % w/w
same,% assay/degradation,"[3]; 30 mg (IV Bag), Ambient 8 h",0.07 % w/w
same,% assay/degradation,"[3]; 30 mg (IV Bag), Ambient 24 h",0.08 % w/w
same,% assay/degradation,"[3]; 30 mg (IV Bag), T = 0 (2-8° C. series)",0.06 % w/w
same,% assay/degradation,"[3]; 30 mg (IV Tube), Ambient 6 Hours",0.06 % w/w
same,% assay/degradation,"[3]; 30 mg in 100 mL 0.9% Saline (IV Bag), T = 0 (Ambient series)",0.06 % w/w
same,% assay/degradation,"[3]; 200 mg (IV Bag), 2-8° C. 24 h",0.06 % w/w
same,% assay/degradation,"[3]; 200 mg (IV Bag), 2-8° C. 48 h",0.06 % w/w
same,% assay/degradation,"[3]; 200 mg (IV Bag), Ambient 4 h",0.06 % w/w
same,% assay/degradation,"[3]; 200 mg (IV Bag), Ambient 8 h",0.06 % w/w
same,% assay/degradation,"[3]; 200 mg (IV Bag), Ambient 24 h",0.08 % w/w
same,% assay/degradation,"[3]; 200 mg (IV Bag), T = 0 (2-8° C. series)",0.06 % w/w
same,% assay/degradation,"[3]; 200 mg (IV Tube), Ambient 6 h",0.06 % w/w
same,% assay/degradation,"[3]; 200 mg in 100 mL 0.9% Saline (IV Bag), T = 0 (Ambient series)",0.06 % w/w
